Source: ChEMBL document CHEMBL1130634, “Quinazolines: combined type 3 and 4 phosphodiesterase inhibitors” (Bioorg Med Chem Lett, 1998)

How the values were obtained:
[1] = molecular target: Phosphodiesterase 3 (Homo sapiens, UniProt Q14432+Q13370); assay: Evaluated for its ability to inhibit PDE3.; format: protein assay
[2] = molecular target: 3',5'-cyclic-AMP phosphodiesterase 4D (Homo sapiens, UniProt Q08499); assay: Evaluated for its ability to inhibit PDE4D.
[3] = molecular target: T1, 3',5'-cyclic-AMP phosphodiesterase 4B (Rattus norvegicus, UniProt P14646); assay: Evaluated for its ability to inhibit PDE4B.
T1 sequence (P14646 whole entry): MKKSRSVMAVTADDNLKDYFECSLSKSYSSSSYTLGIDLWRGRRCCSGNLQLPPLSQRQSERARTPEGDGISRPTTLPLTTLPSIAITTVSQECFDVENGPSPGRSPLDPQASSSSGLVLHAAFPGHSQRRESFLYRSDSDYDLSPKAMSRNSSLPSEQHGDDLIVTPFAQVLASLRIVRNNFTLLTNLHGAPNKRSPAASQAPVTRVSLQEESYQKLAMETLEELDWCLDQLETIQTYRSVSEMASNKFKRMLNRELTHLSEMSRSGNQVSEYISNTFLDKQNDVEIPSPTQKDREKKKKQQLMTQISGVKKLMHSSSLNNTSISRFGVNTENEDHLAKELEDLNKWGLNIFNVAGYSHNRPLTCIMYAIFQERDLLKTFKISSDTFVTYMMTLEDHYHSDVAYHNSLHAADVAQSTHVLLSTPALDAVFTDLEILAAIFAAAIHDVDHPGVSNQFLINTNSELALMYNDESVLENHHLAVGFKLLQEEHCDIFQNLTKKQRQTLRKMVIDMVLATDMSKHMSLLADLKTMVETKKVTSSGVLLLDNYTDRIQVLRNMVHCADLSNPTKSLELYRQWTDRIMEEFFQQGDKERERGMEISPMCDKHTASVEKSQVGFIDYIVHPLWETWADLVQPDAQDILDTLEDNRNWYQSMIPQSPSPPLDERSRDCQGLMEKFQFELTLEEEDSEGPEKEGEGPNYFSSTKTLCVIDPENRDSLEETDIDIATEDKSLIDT

[4] = molecular target: T2, Phosphodiesterase 4 (Rattus norvegicus, UniProt P14270+P14646+P14644+P54748); assay: Inhibition of [3H]-rolipram binding to membrane-bound PDE4
[5] = molecular target: T3, 3',5'-cyclic-AMP phosphodiesterase 4A (Homo sapiens, UniProt P27815); assay: Evaluated for its ability to inhibit PDE4A.
T3 sequence (P27815 whole entry): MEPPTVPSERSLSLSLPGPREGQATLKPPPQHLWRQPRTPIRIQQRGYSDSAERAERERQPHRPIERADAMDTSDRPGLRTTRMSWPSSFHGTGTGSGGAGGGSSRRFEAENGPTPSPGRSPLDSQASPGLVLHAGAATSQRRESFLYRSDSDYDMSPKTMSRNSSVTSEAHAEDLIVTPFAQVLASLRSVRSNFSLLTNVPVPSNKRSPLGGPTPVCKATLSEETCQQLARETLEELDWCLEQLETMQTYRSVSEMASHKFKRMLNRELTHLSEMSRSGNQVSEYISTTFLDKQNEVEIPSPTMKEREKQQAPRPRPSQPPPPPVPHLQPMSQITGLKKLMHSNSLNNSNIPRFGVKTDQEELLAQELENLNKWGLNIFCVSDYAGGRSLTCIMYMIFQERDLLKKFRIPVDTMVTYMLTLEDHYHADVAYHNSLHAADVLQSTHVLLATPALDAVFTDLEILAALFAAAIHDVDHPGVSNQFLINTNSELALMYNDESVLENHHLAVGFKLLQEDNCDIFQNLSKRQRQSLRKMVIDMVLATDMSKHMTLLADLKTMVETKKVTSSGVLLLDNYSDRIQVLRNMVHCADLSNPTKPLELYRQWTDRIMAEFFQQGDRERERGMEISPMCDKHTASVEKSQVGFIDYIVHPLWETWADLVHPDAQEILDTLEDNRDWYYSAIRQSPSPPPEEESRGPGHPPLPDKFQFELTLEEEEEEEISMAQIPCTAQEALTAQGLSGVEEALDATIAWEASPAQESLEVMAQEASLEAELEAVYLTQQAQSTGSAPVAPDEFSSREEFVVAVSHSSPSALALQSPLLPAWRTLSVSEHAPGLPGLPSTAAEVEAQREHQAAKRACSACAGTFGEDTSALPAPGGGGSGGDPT

[6] = molecular target: T2, Phosphodiesterase 4; assay: Evaluated for the inhibition of [3H]rolipram binding to membrane-bound PDE4.
[7] = molecular target: T3, 3',5'-cyclic-AMP phosphodiesterase 4A; assay: Inhibition of PDE4A

Chain of 3',5'-cyclic-AMP phosphodiesterase 4D (Q08499 whole entry): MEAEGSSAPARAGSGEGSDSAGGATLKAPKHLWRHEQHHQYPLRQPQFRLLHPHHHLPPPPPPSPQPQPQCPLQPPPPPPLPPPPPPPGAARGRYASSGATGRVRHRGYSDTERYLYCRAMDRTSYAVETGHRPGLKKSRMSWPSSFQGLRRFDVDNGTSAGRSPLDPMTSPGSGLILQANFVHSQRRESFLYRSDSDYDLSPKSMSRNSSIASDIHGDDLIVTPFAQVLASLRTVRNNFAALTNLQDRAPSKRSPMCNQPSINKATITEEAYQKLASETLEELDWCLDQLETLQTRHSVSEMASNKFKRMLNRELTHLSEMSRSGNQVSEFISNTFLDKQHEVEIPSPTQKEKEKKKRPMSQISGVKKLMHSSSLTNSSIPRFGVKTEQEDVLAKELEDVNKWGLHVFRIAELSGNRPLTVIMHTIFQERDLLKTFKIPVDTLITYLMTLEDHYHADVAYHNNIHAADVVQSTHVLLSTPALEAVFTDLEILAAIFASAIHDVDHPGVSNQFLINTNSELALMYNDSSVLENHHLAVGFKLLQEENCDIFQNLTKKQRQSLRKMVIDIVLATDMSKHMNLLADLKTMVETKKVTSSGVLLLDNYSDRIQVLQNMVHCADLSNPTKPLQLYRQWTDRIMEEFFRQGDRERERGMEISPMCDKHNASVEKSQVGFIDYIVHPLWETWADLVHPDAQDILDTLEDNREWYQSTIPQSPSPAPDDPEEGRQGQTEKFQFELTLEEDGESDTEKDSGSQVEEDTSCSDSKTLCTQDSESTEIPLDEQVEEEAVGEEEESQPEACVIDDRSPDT

Row | IC50 [1] [µM] | IC50 [2] [nM] | IC50 [3] [nM] | IC50 [4] [µM] | IC50 [5] [nM] | IC50 [6] [µM] | IC50 [7] [µM] | SMILES
1 | 0.72 | 300 | 300 | 0.05 | 1300 |  |  | CCCCc1nc(-c2cc(OCC3CC3)cc(OCC3CC3)c2)c2cc(OC)c(OCCO)cc2n1
2 |  | 650 | 2400 |  | 3300 |  |  | CCc1nc(-c2cc(OCC3CC3)cc(OCC3CC3)c2)c2cc(OC)c(O)cc2n1
3 | 0.39 | 140 | 110 |  | 130 | 0.21 |  | COc1nc(-c2cc(OCC3CC3)cc(OCC3CC3)c2)c2cc(OC)c(OCCO)cc2n1
4 |  | 800 | 650 |  | 900 |  |  | COc1cc2nc(C)nc(-c3cc(OCC4CC4)cc(OCC4CC4)c3)c2cc1OC
5 |  | 540 | 600 |  | 2900 |  |  | CCc1nc(-c2cc(OCC3CC3)cc(OCC3CC3)c2)c2cc(OC)c(OCC3CC3)cc2n1
6 | 0.43 | 90 | 80 |  | 70 |  |  | COc1cc2c(-c3cc(OCC4CC4)cc(OCC4CC4)c3)nc(OCCO)nc2cc1OCCO
7 |  | 700 | 440 |  | 540 |  |  | CCSc1nc(-c2cc(OCC3CC3)cc(OCC3CC3)c2)c2cc(OC)c(OCCO)cc2n1
8 | 0.016 | 22 | 25 |  | 30 | 0.015 |  | CCc1nc(-c2cc(OCC3CC3)cc(OCC3CC3)c2)c2cc(OC)c(OCCO)cc2n1
9 | 0.7 | > 100000 | 61000 |  | > 10000 |  |  | CCOC(=O)COc1cc2nc(C)nc(-c3cc(OCC4CC4)cc(OCC4CC4)c3)c2cc1OC
10 | 0.34 | 60 | 70 |  | 85 | 0.043 |  | CCOc1nc(-c2cc(OCC3CC3)cc(OCC3CC3)c2)c2cc(OC)c(OCCO)cc2n1

Continued, molecule first:

Row | SMILES | IC50 [1] [µM] | IC50 [2] [nM] | IC50 [3] [nM] | IC50 [4] [µM] | IC50 [5] [nM] | IC50 [6] [µM] | IC50 [7] [µM]
11 | COc1cc2nc(C)nc(-c3cc(O)cc(O)c3)c2cc1OC |  | 2000 | 14000 |  |  |  | 23.5
12 | COc1cc2c(-c3cc(OCC4CC4)cc(OCC4CC4)c3)nc(-c3cc(OCC4CC4)cc(OCC4CC4)c3)nc2cc1OCCO | 7.8 | 8500 | 22000 |  | 14000 |  | 
13 | COc1cc2c(-c3cc(OCC4CC4)cc(OCC4CC4)c3)nc(OCCCO)nc2cc1OCCO | 0.31 | 130 | 200 |  | 250 | 0.145 | 
14 | COc1cc2c(-c3cc(OCC4CC4)cc(OCC4CC4)c3)nc(N3CCOCC3)nc2cc1OCCO |  | 1200 | 2500 |  | 3300 |  | 
15 | COc1cc2c(-c3cc(OCC4CC4)cc(OCC4CC4)c3)nc(NCCCO)nc2cc1OCCO | 0.43 | 230 | 340 |  | 500 | 0.2 | 
16 | CCc1nc(-c2cc(OCC3CC3)cc(OCC3CC3)c2)c2ccc(OCCO)cc2n1 |  | 850 | 660 |  | 630 |  | 
17 | CCc1nc(-c2cc(OCC3CC3)cc(OCC3CC3)c2)c2cc(OCCO)c(OCCO)cc2n1 |  | > 100000 | > 100000 |  | > 100000 |  | 
18 | CCc1nc(-c2cc(OCC3CC3)cc(OCC3CC3)c2)c2cc(OC)c(OCc3ccccc3)cc2n1 |  | > 100000 | > 100000 |  | > 100000 |  | 
19 | COc1cc2c(-c3cc(OCC4CC4)cc(OCC4CC4)c3)nc(-c3cccs3)nc2cc1OCCO |  | 3000 | 1300 |  | 5400 |  | 
20 | COc1cc2nc(C)nc(-c3cc(OC(C)C)cc(OC(C)C)c3)c2cc1OC |  | 1200 | 1300 |  | 2300 |  | 
